Patent US8952024B2, “Herbicidal pyrimidone derivatives” (E I du Pont de Nemours and Company, priority 2009, dated 2015)

Columns and labels:
Format in all cases: in vivo
[1] = tested on: wild oat (Avena fatua); test: Test B pre-/postemergence plant response
Method in brief: (§1)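 Plants treated either at seeding (loam/sand soil) or postemergence at 2 to 18 cm height, using a surfactant-containing non-phytotoxic solvent formulation. Evaluation was visual after 13 to 15 days, 0 to 100 scale relative to controls.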

[2] = tested on: velvetleaf (Abutilon theophrasti); test: Test B pre-/postemergence plant response
Method in brief: as §1

[3] = tested on: morningglory (Ipomoea coccinea); test: Test B pre-/postemergence plant response
Method in brief: as §1

[4] = tested on: cocklebur (Xanthium strumarium); test: Test B pre-/postemergence plant response
Method in brief: as §1

[5] = tested on: soybean (Glycine max); test: Test B pre-/postemergence plant response
Method in brief: as §1

[6] = tested on: wheat (Triticum aestivum); test: Test B pre-/postemergence plant response
Method in brief: as §1

[7] = tested on: bermudagrass (Cynodon dactylon); test: Test B pre-/postemergence plant response
Method in brief: as §1

[8] = tested on: johnsongrass (Sorghum halepense); test: Test B pre-/postemergence plant response
Method in brief: as §1

[9] = tested on: green foxtail (Setaria viridis); test: Test B pre-/postemergence plant response
Method in brief: as §1

[10] = tested on: downy bromegrass (Bromus tectorum); test: Test B pre-/postemergence plant response
Method in brief: as §1

[11] = tested on: ragweed (common ragweed, Ambrosia elatior); test: Test B pre-/postemergence plant response
Method in brief: as §1

[12] = tested on: kochia (Kochia scoparia); test: Test B pre-/postemergence plant response
Method in brief: as §1

[13] = tested on: blackgrass (Alopecurus myosuroides); test: Test B pre-/postemergence plant response
Method in brief: as §1

[14] = tested on: yellow nutsedge (Cyperus esculentus); test: Test B pre-/postemergence plant response
Method in brief: as §1

[15] = tested on: giant foxtail (Setaria faberii); test: Test B pre-/postemergence plant response
Method in brief: as §1

[16] = tested on: chickweed (Stellaria media); test: Test B postemergence plant response; conditions: Postemergence
Method in brief: (§2)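 Plants at the 1- to 4-leaf stage (2 to 18 cm tall), grown in pots of peat moss/vermiculite medium with wetting agent and starter nutrients, received postemergence applications of test chemicals. After 13 to 15 days in a greenhouse, injury was rated visually against untreated controls on a 0 (no effect) to 100 (complete control) scale.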

[17] = tested on: canarygrass (Phalaris minor); test: Test B postemergence plant response; conditions: Postemergence
Method in brief: as §2

[18] = tested on: windgrass (Apera spica-venti); test: Test B postemergence plant response; conditions: Postemergence
Method in brief: as §2

[19] = 250 g ai/ha, Preemergence, 0 to 100 scale
[20] = Postemergence, 31 g ai/ha, scale 0 to 100 (0 no effect, 100 complete control)
[21] = Postemergence, 62 g ai/ha, scale 0 (no effect) to 100 (complete control), 13 to 15 days
[22] = Postemergence, 125 g ai/ha, visual rating after 13 to 15 days, scale 0 (no effect) to 100 (complete control)
[23] = Postemergence, 250 g ai/ha, scale 0 to 100
[24] = Preemergence, 31 g ai/ha, scale 0 to 100 (0 no effect, 100 complete control)
[25] = Preemergence, 62 g ai/ha, scale 0 to 100, 0 no effect, 100 complete control
[26] = Preemergence, 125 g ai/ha, 0 to 100 scale
[27] = 31 g ai/ha, scale 0 to 100 (0 no effect, 100 complete control)
[28] = 62 g ai/ha, scale 0 (no effect) to 100 (complete control), 13 to 15 days
[29] = 125 g ai/ha, visual rating after 13 to 15 days, scale 0 (no effect) to 100 (complete control)
[30] = Postemergence, 31 g ai/ha, 0 to 100 scale (0 no effect, 100 complete control)
[31] = Postemergence, 125 g ai/ha, scale 0 to 100 (0 no effect, 100 complete control)
[32] = Postemergence, 250 g ai/ha, scale 0 to 100 (0 no effect, 100 complete control), 13 to 15 days
[33] = 62 g ai/ha, postemergence, 0 is no effect, 100 is complete control, 13 to 15 days
[34] = 31 g ai/ha, 0 to 100 scale (0 no effect, 100 complete control)
[35] = 125 g ai/ha, scale 0 to 100 (0 no effect, 100 complete control)
[36] = 250 g ai/ha, scale 0 to 100 (0 no effect, 100 complete control), 13 to 15 days

O=C1CCCC(O)=C1C(=O)c1cnc(-c2ccccc2)n(-c2ccc(F)cc2)c1=O [Compound 24]
60: Plant response rating, Oat, Wild [1, 22] | Plant response rating, Morningglory [3, 21] | Plant response rating, Morningglory [3, 22] | Plant response rating, Soybean [5, 25] | Plant response rating, Johnsongrass [8, 20] | Plant response rating, Johnsongrass [8, 21] | Canarygrass plant response rating ([17]; 250 g ai/ha, scale 0 to 100) | Plant response rating, Windgrass [18, 29]
5: Plant response rating, Wheat [6, 20] | Plant response rating, Blackgrass [13, 20]
90: Plant response rating, Velvetleaf [2, 21] | Morningglory plant response rating [3, 23] | Plant response rating, Cocklebur [4, 20] | Plant response rating, Johnsongrass [8, 19] | Johnsongrass plant response rating [8, 26] | Plant response rating, Foxtail, Green [9, 22] | Plant response rating, Ragweed [11, 22] | Plant response rating, Ragweed [11, 25] | Plant response rating, Nutsedge, Yellow [14, 19] | Plant response rating, Foxtail, Giant [15, 22] | Foxtail, Giant plant response rating [15, 26] | Plant response rating, Chickweed [16, 28]
20: Plant response rating, Johnsongrass [8, 24] | Plant response rating, Bromegrass, Downy [10, 19] | Plant response rating, Nutsedge, Yellow [14, 20] | Plant response rating, Windgrass [18, 27]
25: Plant response rating, Bromegrass, Downy [10, 20]
10: Plant response rating, Cocklebur [4, 24] | Plant response rating, Wheat [6, 21] | Plant response rating, Blackgrass [13, 19] | Plant response rating, Blackgrass [13, 21]
45: Plant response rating, Soybean [5, 24]
0: Plant response rating, Oat, Wild [1, 24] | Plant response rating, Oat, Wild [1, 25] | Oat, Wild plant response rating [1, 26] | Plant response rating, Wheat [6, 19] | Plant response rating, Wheat [6, 24] | Plant response rating, Wheat [6, 25] | Wheat plant response rating [6, 26] | Plant response rating, Foxtail, Green [9, 24] | Plant response rating, Bromegrass, Downy [10, 24] | Plant response rating, Bromegrass, Downy [10, 25] | Bromegrass, Downy plant response rating [10, 26] | Plant response rating, Blackgrass [13, 24] | Plant response rating, Blackgrass [13, 25] | Blackgrass plant response rating [13, 26]
80: Plant response rating, Oat, Wild [1, 19] | Oat, Wild plant response rating [1, 23] | Soybean plant response rating [5, 26] | Johnsongrass plant response rating [8, 23] | Plant response rating, Ragweed [11, 21] | Plant response rating, Kochia [12, 22] | Plant response rating, Chickweed [16, 27] | Windgrass plant response rating ([18]; 250 g ai/ha, scale 0 to 100)
70: Plant response rating, Johnsongrass [8, 22] | Plant response rating, Bromegrass, Downy [10, 22] | Plant response rating, Ragweed [11, 20] | Plant response rating, Kochia [12, 20] | Plant response rating, Kochia [12, 21] | Nutsedge, Yellow plant response rating [14, 23] | Plant response rating, Foxtail, Giant [15, 20]
100: Plant response rating, Velvetleaf [2, 19] | Plant response rating, Velvetleaf [2, 25] | Velvetleaf plant response rating [2, 26] | Plant response rating, Morningglory [3, 19] | Plant response rating, Morningglory [3, 24] | Plant response rating, Morningglory [3, 25] | Morningglory plant response rating [3, 26] | Cocklebur plant response rating [4, 23] | Soybean plant response rating [5, 23] | Plant response rating, Bermudagrass [7, 19] | Plant response rating, Bermudagrass ([7]; Postemergence, 125 g ai/ha, scale 0 to 100 (0 no effect, 100 complete control), 13 to 15 days) | Bermudagrass plant response rating [7, 23] | Plant response rating, Bermudagrass [7, 25] | Bermudagrass plant response rating [7, 26] | Plant response rating, Foxtail, Green [9, 19] | Foxtail, Green plant response rating [9, 26] | Plant response rating, Ragweed [11, 19] | Plant response rating, Kochia [12, 19] | Kochia plant response rating [12, 23] | Plant response rating, Kochia [12, 24] | Plant response rating, Kochia [12, 25] | Kochia plant response rating [12, 26] | Plant response rating, Foxtail, Giant [15, 19] | Chickweed plant response rating ([16]; 250 g ai/ha, scale 0 to 100)
30: Plant response rating, Wheat [6, 22] | Plant response rating, Nutsedge, Yellow [14, 21] | Plant response rating, Nutsedge, Yellow [14, 22] | Plant response rating, Nutsedge, Yellow [14, 24] | Plant response rating, Foxtail, Giant [15, 24] | Plant response rating, Windgrass [18, 28]
85: Plant response rating, Soybean [5, 19] | Plant response rating, Soybean [5, 20] | Plant response rating, Bermudagrass [7, 20] | Plant response rating, Johnsongrass [8, 25] | Plant response rating, Ragweed [11, 24] | Nutsedge, Yellow plant response rating [14, 26] | Plant response rating, Foxtail, Giant [15, 21] | Plant response rating, Foxtail, Giant [15, 25]
95: Plant response rating, Cocklebur [4, 19] | Cocklebur plant response rating [4, 26] | Plant response rating, Soybean [5, 21] | Plant response rating, Soybean [5, 22] | Plant response rating, Bermudagrass [7, 21] | Plant response rating, Bermudagrass [7, 24] | Foxtail, Green plant response rating [9, 23] | Foxtail, Giant plant response rating [15, 23] | Plant response rating, Chickweed [16, 29]
40: Plant response rating, Oat, Wild [1, 20] | Plant response rating, Foxtail, Green [9, 20] | Plant response rating, Foxtail, Green [9, 21] | Plant response rating, Foxtail, Green [9, 25] | Plant response rating, Blackgrass [13, 22] | Plant response rating, Canarygrass [17, 27] | Plant response rating, Canarygrass [17, 28]
75: Plant response rating, Velvetleaf [2, 20] | Bromegrass, Downy plant response rating [10, 23]
50: Plant response rating, Oat, Wild [1, 21] | Plant response rating, Morningglory [3, 20] | Wheat plant response rating [6, 23] | Plant response rating, Bromegrass, Downy [10, 21] | Blackgrass plant response rating [13, 23] | Plant response rating, Nutsedge, Yellow [14, 25]
98: Plant response rating, Velvetleaf [2, 22] | Velvetleaf plant response rating [2, 23] | Plant response rating, Velvetleaf [2, 24] | Plant response rating, Cocklebur [4, 21] | Plant response rating, Cocklebur [4, 22] | Ragweed plant response rating [11, 23] | Ragweed plant response rating [11, 26]

CCCn1c(-c2cc(Cl)cc(Cl)c2)ncc(C(=O)C2=C(O)CCCC2=O)c1=O [Compound 173]
60: Plant response rating, Cocklebur [4, 30] | Plant response rating, Soybean [5, 30] | Plant response rating, Nutsedge, Yellow [14, 31]
80: Plant response rating, Morningglory [3, 31] | Plant response rating, Canarygrass [17, 36]
90: Plant response rating, Foxtail, Green [9, 31] | Plant response rating, Foxtail, Green [9, 32] | Plant response rating, Ragweed [11, 31]
95: Plant response rating, Morningglory [3, 32] | Plant response rating, Soybean [5, 31] | Plant response rating, Johnsongrass [8, 31] | Plant response rating, Foxtail, Giant [15, 30]
45: Plant response rating, Nutsedge, Yellow [14, 30]
75: Plant response rating, Morningglory [3, 30] | Plant response rating, Nutsedge, Yellow [14, 32] | Plant response rating, Windgrass [18, 36]
40: Plant response rating, Wheat [6, 31] | Plant response rating, Bromegrass, Downy [10, 31] | Plant response rating, Canarygrass [17, 35]
50: Plant response rating, Oat, Wild [1, 30] | Plant response rating, Wheat [6, 32] | Plant response rating, Blackgrass [13, 32]
65: Plant response rating, Johnsongrass [8, 30] | Plant response rating, Kochia [12, 30] | Plant response rating, Chickweed [16, 34]
85: Plant response rating, Oat, Wild [1, 32]
70: Plant response rating, Oat, Wild [1, 31] | Plant response rating, Bromegrass, Downy [10, 32] | Plant response rating, Windgrass [18, 35]
5: Plant response rating, Bromegrass, Downy [10, 30] | Plant response rating, Blackgrass [13, 30]
10: Plant response rating, Wheat [6, 30] | Blackgrass plant response rating (0 to 100 scale) [13, 33] | Plant response rating, Canarygrass [17, 34]
55: Plant response rating, Foxtail, Green [9, 30] | Plant response rating, Ragweed [11, 30]
100: Plant response rating, Velvetleaf [2, 30] | Plant response rating, Velvetleaf [2, 31] | Plant response rating, Velvetleaf [2, 32] | Plant response rating, Cocklebur [4, 31] | Plant response rating, Cocklebur [4, 32] | Plant response rating, Soybean [5, 32] | Plant response rating, Bermudagrass [7, 31] | Plant response rating, Bermudagrass [7, 32] | Plant response rating, Kochia [12, 32] | Plant response rating, Foxtail, Giant [15, 31] | Plant response rating, Foxtail, Giant [15, 32] | Plant response rating, Chickweed [16, 35] | Plant response rating, Chickweed [16, 36]
25: Bromegrass, Downy plant response rating (0 to 100 scale) [10, 33]
30: Plant response rating, Blackgrass [13, 31] | Plant response rating, Windgrass [18, 34]
98: Bermudagrass plant response rating (0 to 100 scale) [7, 33] | Plant response rating, Bermudagrass [7, 30] | Plant response rating, Ragweed [11, 32] | Plant response rating, Kochia [12, 31]
